# Assay results: ChEMBL document CHEMBL4507299, “Data for DCP probe PF-04554878” (2021)
# How the values were obtained:
# [1] = molecular target: Fibroblast growth factor receptor 4 (Homo sapiens) (UniProt P22455)
# [2] = molecular target: NUAK family SNF1-like kinase 2 (Homo sapiens) (UniProt Q9H093)
# [3] = molecular target: RAC-beta serine/threonine-protein kinase (Homo sapiens) (UniProt P31751)
# [4] = molecular target: Serine/threonine-protein kinase RIO3 (Homo sapiens) (UniProt O14730)
# [5] = molecular target: Dual specificity mitogen-activated protein kinase kinase 4 (Homo sapiens) (UniProt P45985)
# [6] = test system: Phosphatidylinositol 4,5-bisphosphate 3-kinase catalytic subunit alpha isoform (Homo sapiens), P42336 [Q546K]
# [7] = test system: Tyrosine-protein kinase ABL1 (Homo sapiens), P00519 [E255K]
# [8] = molecular target: Ephrin type-A receptor 8 (Homo sapiens) (UniProt P29322)
# [9] = molecular target: Histamine H1 receptor (Homo sapiens) (UniProt P35367); settings: Compound concentration 10.0 uM
# [10] = test system: Phosphatidylinositol 4,5-bisphosphate 3-kinase catalytic subunit alpha isoform (Homo sapiens), P42336 [E545K]
# [11] = molecular target: Ephrin type-B receptor 4 (Homo sapiens) (UniProt P54760)
# [12] = molecular target: Mitogen-activated protein kinase 10 (Homo sapiens) (UniProt P53779)
# [13] = molecular target: Homeodomain-interacting protein kinase 2 (Homo sapiens) (UniProt Q9H2X6)
# [14] = molecular target: Phosphatidylinositol 4-kinase beta (Homo sapiens) (UniProt Q9UBF8)
# [15] = test system: Receptor-type tyrosine-protein kinase FLT3 (Homo sapiens), P36888 [N841I]
# [16] = molecular target: Activin receptor type-2B (Homo sapiens) (UniProt Q13705)
# [17] = test system: Epidermal growth factor receptor (Homo sapiens), P00533 [UNDEFINED MUTATION]
# [18] = molecular target: GABA-A receptor; anion channel (Rattus norvegicus) (UniProt O09028+P15431+P18506+P18508+P19969+P20236+P23574+P23576+P28471+P28473+P30191+P62813+P63079+P63138+Q91ZM7+Q9ES14); settings: Compound concentration 10.0 uM
# [19] = test system: Tyrosine-protein kinase ABL1 (Homo sapiens), P00519 [T315I]
# [20] = molecular target: cAMP-dependent protein kinase catalytic subunit beta (Homo sapiens) (UniProt P22694)
# [21] = molecular target: Insulin-like growth factor 1 receptor (Homo sapiens) (UniProt P08069)
# [22] = molecular target: Fibroblast growth factor receptor 3 (Homo sapiens) (UniProt P22607)
# [23] = molecular target: Cyclin-dependent kinase 2 (Homo sapiens) (UniProt P24941)
# [24] = molecular target: MAP kinase-activated protein kinase 5 (Homo sapiens) (UniProt Q8IW41)
# [25] = molecular target: T1, Tyrosine-protein kinase JAK3 (Homo sapiens) (UniProt P52333)
# T1 sequence (whole entry): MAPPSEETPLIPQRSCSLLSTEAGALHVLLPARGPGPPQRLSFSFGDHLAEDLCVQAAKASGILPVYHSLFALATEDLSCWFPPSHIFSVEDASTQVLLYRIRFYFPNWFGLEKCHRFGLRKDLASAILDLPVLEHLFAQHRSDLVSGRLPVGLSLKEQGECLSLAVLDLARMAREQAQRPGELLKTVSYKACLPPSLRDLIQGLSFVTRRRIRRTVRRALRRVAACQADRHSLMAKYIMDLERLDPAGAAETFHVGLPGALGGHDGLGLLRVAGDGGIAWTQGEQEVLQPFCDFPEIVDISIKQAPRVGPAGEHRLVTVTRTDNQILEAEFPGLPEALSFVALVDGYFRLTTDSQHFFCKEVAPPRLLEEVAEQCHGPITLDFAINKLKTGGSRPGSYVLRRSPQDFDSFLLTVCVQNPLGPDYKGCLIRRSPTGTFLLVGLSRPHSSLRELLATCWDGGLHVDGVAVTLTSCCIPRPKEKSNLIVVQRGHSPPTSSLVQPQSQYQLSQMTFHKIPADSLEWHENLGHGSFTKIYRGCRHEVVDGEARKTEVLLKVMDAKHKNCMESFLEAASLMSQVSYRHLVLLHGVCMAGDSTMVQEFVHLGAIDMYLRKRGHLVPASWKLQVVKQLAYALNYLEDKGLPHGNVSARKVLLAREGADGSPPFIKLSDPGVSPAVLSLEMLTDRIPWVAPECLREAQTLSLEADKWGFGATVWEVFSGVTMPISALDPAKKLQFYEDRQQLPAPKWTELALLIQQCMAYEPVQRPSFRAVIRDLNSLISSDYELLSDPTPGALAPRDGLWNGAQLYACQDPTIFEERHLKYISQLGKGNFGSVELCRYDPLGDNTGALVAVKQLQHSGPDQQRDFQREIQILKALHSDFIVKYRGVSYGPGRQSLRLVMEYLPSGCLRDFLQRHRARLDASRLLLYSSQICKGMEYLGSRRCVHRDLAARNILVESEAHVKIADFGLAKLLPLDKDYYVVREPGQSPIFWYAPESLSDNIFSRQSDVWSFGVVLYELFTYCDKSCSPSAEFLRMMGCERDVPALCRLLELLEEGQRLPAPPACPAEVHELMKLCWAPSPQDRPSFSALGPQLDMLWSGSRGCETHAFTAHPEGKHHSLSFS
# [26] = molecular target: Serine/threonine-protein kinase 17B (Homo sapiens) (UniProt O94768)
# [27] = molecular target: Casein kinase I isoform gamma-1 (Homo sapiens) (UniProt Q9HCP0)
# [28] = molecular target: Phosphatidylinositol 4,5-bisphosphate 3-kinase catalytic subunit alpha isoform (Homo sapiens) (UniProt P42336)
# [29] = Compound concentration 100.0 nM
# [30] = Compound concentration 1000.0 nM
# Chain of Dual specificity mitogen-activated protein kinase kinase 4 (Homo sapiens) (P45985 whole entry, canonical isoform): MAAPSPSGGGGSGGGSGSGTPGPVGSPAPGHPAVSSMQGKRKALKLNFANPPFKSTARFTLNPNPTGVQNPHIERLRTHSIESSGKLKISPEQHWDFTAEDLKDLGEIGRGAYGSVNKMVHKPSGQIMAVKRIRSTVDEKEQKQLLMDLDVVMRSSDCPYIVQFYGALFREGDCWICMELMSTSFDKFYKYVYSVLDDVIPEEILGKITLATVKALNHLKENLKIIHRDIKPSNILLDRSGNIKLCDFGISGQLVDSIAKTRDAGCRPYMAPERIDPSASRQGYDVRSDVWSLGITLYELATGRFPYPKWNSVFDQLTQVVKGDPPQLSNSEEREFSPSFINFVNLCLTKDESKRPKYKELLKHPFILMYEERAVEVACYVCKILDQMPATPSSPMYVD
# Chain of NUAK family SNF1-like kinase 2 (Homo sapiens) (Q9H093 whole entry): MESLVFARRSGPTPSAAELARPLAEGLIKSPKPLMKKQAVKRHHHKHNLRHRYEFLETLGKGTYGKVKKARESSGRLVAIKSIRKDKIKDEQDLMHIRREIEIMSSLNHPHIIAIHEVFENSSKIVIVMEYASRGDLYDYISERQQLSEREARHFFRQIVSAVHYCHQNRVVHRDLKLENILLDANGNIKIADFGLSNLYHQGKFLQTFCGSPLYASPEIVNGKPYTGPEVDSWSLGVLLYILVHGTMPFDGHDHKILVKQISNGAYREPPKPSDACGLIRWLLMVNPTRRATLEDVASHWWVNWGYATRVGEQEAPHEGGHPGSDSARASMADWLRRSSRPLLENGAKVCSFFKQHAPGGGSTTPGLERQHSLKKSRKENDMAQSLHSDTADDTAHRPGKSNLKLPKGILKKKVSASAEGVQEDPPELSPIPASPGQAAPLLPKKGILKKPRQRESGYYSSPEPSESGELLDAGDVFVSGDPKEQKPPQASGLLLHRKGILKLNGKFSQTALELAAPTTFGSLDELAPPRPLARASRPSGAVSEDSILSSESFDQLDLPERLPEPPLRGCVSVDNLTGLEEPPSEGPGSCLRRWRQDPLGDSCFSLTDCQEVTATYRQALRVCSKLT
# Chain of Fibroblast growth factor receptor 4 (Homo sapiens) (P22455 22-802 limits assumed): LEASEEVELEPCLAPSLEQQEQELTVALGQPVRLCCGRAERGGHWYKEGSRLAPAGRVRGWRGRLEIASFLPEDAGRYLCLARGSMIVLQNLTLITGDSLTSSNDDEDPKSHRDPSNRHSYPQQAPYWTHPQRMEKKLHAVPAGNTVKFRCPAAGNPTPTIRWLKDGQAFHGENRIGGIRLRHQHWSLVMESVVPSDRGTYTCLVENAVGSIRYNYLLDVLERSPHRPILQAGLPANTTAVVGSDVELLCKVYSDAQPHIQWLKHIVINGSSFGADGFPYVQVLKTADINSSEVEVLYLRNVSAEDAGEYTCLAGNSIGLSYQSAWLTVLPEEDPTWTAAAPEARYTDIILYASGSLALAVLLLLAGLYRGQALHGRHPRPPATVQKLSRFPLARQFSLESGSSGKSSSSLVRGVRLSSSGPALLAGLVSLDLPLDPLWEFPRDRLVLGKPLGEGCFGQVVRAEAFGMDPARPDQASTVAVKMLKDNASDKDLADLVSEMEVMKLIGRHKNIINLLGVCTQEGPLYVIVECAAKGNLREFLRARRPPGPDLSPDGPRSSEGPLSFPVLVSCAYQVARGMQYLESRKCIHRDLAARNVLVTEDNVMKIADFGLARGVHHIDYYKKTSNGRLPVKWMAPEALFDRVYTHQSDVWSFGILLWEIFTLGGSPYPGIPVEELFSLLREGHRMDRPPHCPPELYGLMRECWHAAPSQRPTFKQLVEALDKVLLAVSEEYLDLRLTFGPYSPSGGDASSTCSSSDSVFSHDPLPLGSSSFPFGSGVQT
# Chain of Homeodomain-interacting protein kinase 2 (Homo sapiens) (Q9H2X6 whole entry, looked up): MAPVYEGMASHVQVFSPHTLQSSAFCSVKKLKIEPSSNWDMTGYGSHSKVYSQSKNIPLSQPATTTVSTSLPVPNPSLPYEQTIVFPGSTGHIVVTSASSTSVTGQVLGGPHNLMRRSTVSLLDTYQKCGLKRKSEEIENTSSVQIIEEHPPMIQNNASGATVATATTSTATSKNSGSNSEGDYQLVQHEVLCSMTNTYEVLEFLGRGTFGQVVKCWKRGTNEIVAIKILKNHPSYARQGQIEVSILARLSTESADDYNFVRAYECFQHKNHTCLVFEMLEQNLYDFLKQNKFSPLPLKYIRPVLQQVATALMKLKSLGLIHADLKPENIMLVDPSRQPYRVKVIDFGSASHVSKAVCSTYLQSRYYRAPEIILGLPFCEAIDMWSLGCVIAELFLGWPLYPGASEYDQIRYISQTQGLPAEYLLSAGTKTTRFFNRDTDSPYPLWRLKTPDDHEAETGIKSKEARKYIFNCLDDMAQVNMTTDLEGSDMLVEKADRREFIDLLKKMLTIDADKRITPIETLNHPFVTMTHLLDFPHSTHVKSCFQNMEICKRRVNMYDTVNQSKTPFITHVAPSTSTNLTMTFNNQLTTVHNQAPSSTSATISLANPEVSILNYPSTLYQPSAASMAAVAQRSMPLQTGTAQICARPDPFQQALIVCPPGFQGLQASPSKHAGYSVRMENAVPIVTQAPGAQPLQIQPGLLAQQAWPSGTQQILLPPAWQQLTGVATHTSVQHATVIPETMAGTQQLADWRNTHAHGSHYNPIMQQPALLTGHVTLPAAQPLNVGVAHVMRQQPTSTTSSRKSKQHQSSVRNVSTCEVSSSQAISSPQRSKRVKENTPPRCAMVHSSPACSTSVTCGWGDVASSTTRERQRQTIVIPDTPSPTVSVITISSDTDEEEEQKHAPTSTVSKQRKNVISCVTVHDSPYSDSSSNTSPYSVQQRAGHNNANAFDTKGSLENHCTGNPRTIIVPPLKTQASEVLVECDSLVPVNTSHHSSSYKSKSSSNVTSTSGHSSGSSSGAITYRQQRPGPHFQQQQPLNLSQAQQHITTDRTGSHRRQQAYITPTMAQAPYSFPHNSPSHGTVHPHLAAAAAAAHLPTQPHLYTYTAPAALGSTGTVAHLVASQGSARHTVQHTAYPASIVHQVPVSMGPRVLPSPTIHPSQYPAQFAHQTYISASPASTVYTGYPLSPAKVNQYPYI
# Chain of Phosphatidylinositol 4-kinase beta (Homo sapiens) (Q9UBF8 2-816 limits assumed): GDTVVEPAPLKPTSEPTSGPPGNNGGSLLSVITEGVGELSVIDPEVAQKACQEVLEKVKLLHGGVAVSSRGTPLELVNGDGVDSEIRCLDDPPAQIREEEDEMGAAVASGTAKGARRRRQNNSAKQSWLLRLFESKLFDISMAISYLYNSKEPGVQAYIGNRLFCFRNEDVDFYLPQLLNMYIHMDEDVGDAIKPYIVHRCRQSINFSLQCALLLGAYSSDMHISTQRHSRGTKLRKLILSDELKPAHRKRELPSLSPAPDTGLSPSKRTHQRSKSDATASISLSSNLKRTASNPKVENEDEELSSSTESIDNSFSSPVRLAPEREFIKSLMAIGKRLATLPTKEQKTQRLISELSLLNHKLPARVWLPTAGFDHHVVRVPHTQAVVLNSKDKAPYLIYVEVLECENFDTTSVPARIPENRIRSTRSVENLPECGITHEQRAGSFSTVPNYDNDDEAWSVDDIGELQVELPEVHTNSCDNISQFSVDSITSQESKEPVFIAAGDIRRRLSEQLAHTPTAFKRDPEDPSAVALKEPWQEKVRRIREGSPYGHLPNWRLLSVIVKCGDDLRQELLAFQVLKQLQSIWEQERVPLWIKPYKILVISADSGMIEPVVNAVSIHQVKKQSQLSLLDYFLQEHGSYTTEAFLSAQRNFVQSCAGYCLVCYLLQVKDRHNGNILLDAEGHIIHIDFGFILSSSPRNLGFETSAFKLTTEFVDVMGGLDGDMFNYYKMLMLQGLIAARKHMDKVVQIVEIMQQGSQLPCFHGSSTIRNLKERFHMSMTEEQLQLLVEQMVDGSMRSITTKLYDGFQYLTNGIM
# Chain of Ephrin type-A receptor 8 (Homo sapiens) (P29322 whole entry): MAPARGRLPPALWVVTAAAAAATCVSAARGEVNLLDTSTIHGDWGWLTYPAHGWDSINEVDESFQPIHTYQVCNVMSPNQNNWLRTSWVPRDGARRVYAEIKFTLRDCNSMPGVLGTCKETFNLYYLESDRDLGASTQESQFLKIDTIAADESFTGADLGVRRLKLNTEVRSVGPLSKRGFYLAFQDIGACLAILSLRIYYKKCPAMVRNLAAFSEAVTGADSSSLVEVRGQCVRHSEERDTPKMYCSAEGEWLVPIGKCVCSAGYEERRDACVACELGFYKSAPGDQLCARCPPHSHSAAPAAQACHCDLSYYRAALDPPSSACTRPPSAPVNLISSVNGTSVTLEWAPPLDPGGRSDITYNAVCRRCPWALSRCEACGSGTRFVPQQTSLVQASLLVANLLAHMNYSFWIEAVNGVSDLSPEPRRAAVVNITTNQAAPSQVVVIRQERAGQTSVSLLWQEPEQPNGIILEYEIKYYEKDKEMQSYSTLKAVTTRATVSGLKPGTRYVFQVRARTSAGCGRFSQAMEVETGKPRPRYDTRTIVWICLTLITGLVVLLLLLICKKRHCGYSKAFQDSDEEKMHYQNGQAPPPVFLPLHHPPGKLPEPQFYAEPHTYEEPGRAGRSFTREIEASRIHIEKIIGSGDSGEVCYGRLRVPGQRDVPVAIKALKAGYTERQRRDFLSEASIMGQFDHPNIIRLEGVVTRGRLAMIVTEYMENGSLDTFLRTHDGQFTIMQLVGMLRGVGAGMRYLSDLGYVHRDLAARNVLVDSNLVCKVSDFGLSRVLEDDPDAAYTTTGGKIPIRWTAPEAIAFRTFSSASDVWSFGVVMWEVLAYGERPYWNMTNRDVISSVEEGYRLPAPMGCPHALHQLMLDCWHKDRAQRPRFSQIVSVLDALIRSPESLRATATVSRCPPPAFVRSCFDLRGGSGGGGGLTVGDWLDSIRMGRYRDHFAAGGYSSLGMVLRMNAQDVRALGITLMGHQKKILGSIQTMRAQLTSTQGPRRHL
smiles,measurement,setting,value
CNC(=O)c1ccc(Nc2ncc(C(F)(F)F)c(NCc3nccnc3N(C)S(C)(=O)=O)n2)cc1 [DEFACTINIB],residual activity,[1]; [29],95%
same,residual activity,[2]; [29],53%
same,residual activity,[3]; [29],77%
same,residual activity,[4]; [29],55%
same,residual activity,[5]; [29],71%
same,residual activity,[6]; [29],17%
same,residual activity,[7]; [29],100%
same,residual activity,[8]; [29],87%
same,inhibition,[9],-3.38%
same,residual activity,[10]; [29],100%
same,residual activity,[11]; [29],94%
same,residual activity,[12]; [29],100%
same,residual activity,[13]; [29],37%
same,residual activity,[14]; [29],99%
same,residual activity,[15]; [29],0%
same,residual activity,[16]; [29],100%
same,residual activity,[17]; [29],82%
same,inhibition,[18],-7.85%
same,residual activity,[19]; [29],45%
same,residual activity,[20]; [29],93%
same,residual activity,[21]; [29],84%
same,residual activity,[22]; [29],78%
same,residual activity,[23]; [29],97%
same,residual activity,[24]; [29],76%
same,residual activity,[25]; [29],8.2%
same,residual activity,[26]; [29],100%
same,residual activity,[27]; [29],82%
same,residual activity,[28]; [29],100%
CN(c1ccnc(CNc2nc(Nc3ccc4c(c3)CC(=O)N4)ncc2C(F)(F)F)n1)S(C)(=O)=O [PF-00911705],residual activity,[1]; [30],83%
same,residual activity,[2]; [30],7.6%
same,residual activity,[3]; [30],82%
same,residual activity,[4]; [30],8.5%
same,residual activity,[5]; [30],23%
same,residual activity,[6]; [30],93%
same,residual activity,[7]; [30],34%
same,residual activity,[8]; [30],100%
same,inhibition,[9],21.4%
same,residual activity,[10]; [30],100%
same,residual activity,[11]; [30],96%
same,residual activity,[12]; [30],56%
same,residual activity,[13]; [30],54%
same,residual activity,[14]; [30],76%
same,residual activity,[15]; [30],0%
same,residual activity,[16]; [30],73%
same,residual activity,[17]; [30],57%
same,inhibition,[18],29.5%
same,residual activity,[19]; [30],11%
same,residual activity,[20]; [30],88%
same,residual activity,[21]; [30],100%
same,residual activity,[22]; [30],71%
same,residual activity,[23]; [30],89%
same,residual activity,[24]; [30],94%
same,residual activity,[25]; [30],1.9%
same,residual activity,[26]; [30],48%
same,residual activity,[27]; [30],100%
same,residual activity,[28]; [30],100%
